Source: patent US20260345517A1, “DOSAGE REGIMENS FOR TREATING STARGARDT DISEASE” (Alkeus Pharmaceuticals, Inc., priority 2024, published 2026)
“Also recorded” adds a separate entry of the source.

What was measured:
Type in all cases: in vivo, human
Conditions in all cases: 14 mg daily
[1] = tested on: asymptomatic Stargardt disease patients; assay: TEASE-3: best-corrected visual acuity (BCVA)
Experimental: (§1) The tolerability and effects of gildeuretinol acetate in Stargardt Disease (Clinical trial group 3 also known as TEASE-3) study was an open-label, multicenter, case control study designed to evaluate the efficacy and safety of gildeuretinol acetate on the progression of Stargardt disease in asymptomatic individuals. The trial was conducted at multiple sites in the United States.
To assess the safety and efficacy of gildeuretinol acetate in preventing vision loss in asymptomatic individuals, gildeuretinol acetate 14 mg capsules was administered to individuals showing early signs of retinal damage while maintaining approximately 20/20 vision and no subjective loss of vision. […] Based on the above family history and clinical observations, the individuals were likely to develop retinal lesions, loss of photoreceptors, drops in retinal sensitivity, loss of visual acuity, indicating the onset of symptoms, i.e. a progression to the symptomatic phase, including vision loss within two years, mirroring the progression observed in their older siblings.
(§2) Patients received gildeuretinol acetate 14 mg capsules, to be taken orally once daily. Trial visits occurred every 6 months approximately following screening and treatment start visits.
(§3) Disease progression was monitored by best-corrected visual acuity (BCVA) reported in number of Early Treatment Diabetic Retinopathy Study (ETDRS) letters, fundus autofluorescence (FAF) imaging, loss of photoreceptors (as measured by the ellipsoid zone band loss) by optical coherence tomography (OCT) according to literature (1-3) and retinal sensitivity by microperimetry.
(§4) Measurements from the left and right eye for each patient were averaged for each visit to produce a single statistical unit for both eyes(4). For segmented linear regressions, knot times were selected so that three visits were included in the first segment.

[2] = tested on: asymptomatic Stargardt disease patients; assay: TEASE-3: photoreceptor loss (ellipsoid zone band loss) by optical coherence tomography
Experimental: FIG. 5 is a graph showing retinal photoreceptor loss over time in three asymptomatic Stargardt disease patients taking gildeuretinol acetate 14 mg daily. Lines are piecewise linear regressions with a knot time of 6 months and show the mean area of retinal photoreceptor loss of both eyes. Each symbol represents the area of photoreceptor loss for calculated for one eye. To measure photoreceptor loss, the ellipsoid zone layer was evaluated on b-scans acquired on Heidelberg engineering optical coherence tomography (Heidelberg, Germany).
as §1, §2, §3, §4

[3] = tested on: asymptomatic Stargardt disease patients; assay: TEASE-3: disease progression
Experimental: as §1
To assess the safety and efficacy of gildeuretinol acetate in preventing vision loss in asymptomatic individuals, gildeuretinol acetate 14 mg capsules was administered to individuals showing early signs of retinal damage while maintaining approximately 20/20 vision and no subjective loss of vision. […]
as §3, with “microperimetry. […]” for “microperimetry.”

For `CC(=O)OC/C=C(C)/C=C/C=C(C)/C=C/C1=C(C)CCCC1(C)C` [gildeuretinol acetate, C20-D3-retinol acetate], the “BCVA of treated siblings” value ([1]; 2 to 4 years) was 88±4 ETDRS letters, the “average improvement of BCVA versus untreated siblings” value ([1]; age-matched untreated siblings) was 22±13 letters and the “average improvement of BCVA versus untreated siblings, lines of vision on the ETDRS eyechart” value ([1]; age-matched untreated siblings) was “four”. For the same molecule, the “average area of photoreceptor loss” value [2] was 0.36±0.32 mm^2, the “average area of photoreceptor loss, share of the foveal area” value [2] was 20% and the “photoreceptor loss, following years of treatment” value ([2]; after first six months) was “trended toward an improvement”. The photoreceptor loss rate ([2]; first six months, average for two patients) was “approximately 0.18 mm^2/year”, the “photoreceptor loss, third patient” value ([2]; full treatment period) was “no photoreceptors were lost” and the “disease progression / vision loss during treatment (in words)” value ([3]; 2 to 4 years, asymptomatic patients) was “arrested loss of vision and retinal pathology; also recorded: no observable disease progression; also recorded: effectively prevented vision loss and further retinal damage; also recorded: no vision loss or disease progression”. The “photoreceptor and retinal sensitivity outcomes with prolonged treatment” value ([3]; prolonged treatment) was “trended toward an improvement”.
